Source: ChEMBL document CHEMBL1137865, “Modeling the binding affinities of beta-secretase inhibitors: application to subsite specificity” (Bioorg Med Chem Lett, 2004)
Starred links: 1 amine or outer side, 2 acyl side, 3 side chain; linkers in the order of their positions; H or OH if unused. Non-standard residues stand in square brackets, D forms with d. Residues, ends and D or L forms follow the SMILES beside them. *: point of attachment. LeuΨ(S-CHOHCH2)Ala = CC(C)C[C@H](N[*:1])[C@@H](O)C[C@@H](C)C(=O)[*:2]; X1 = O=C(O)CC[C@H](N*)C(=O)C[C@@H](Cc1ccccc1)C(=O)O

Molecular target: Beta-secretase 1 (Homo sapiens, UniProt P56817)
Test: Binding affinity against Beta-secretase

Sequence of Beta-secretase 1 (P56817 whole entry): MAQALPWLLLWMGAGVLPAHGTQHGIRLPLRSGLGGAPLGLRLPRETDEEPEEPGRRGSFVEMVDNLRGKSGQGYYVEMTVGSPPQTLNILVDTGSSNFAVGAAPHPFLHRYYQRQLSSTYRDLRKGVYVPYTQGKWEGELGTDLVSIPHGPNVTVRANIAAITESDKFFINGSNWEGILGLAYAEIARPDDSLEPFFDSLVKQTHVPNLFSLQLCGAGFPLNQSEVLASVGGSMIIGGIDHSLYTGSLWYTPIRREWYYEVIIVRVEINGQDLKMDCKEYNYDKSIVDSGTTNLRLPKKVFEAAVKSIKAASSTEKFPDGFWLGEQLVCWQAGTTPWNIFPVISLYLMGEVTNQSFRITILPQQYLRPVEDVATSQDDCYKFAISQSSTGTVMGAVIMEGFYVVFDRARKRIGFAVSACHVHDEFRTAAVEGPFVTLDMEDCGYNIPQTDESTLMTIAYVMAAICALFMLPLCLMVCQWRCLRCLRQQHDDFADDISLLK

Compound | Ki [µM] | IC50 [µM]
CC(C)C[C@H](NC(=O)[C@@H](N)CCC(=O)O)C(=O)N[C@@H](CC(=O)O)C(=O)N[C@@H](CC(C)C)[C@@H](O)C[C@@H](C)C(=O)N[C@H](C(=O)N[C@@H](CCC(=O)O)C(=O)C[C@@H](Cc1ccccc1)C(=O)O)C(C)C (H-ELD[LeuΨ(S-CHOHCH2)Ala]V-X1) | 0.00032 | –
CCCN(CCC)C(=O)c1cccc(C(=O)N[C@@H](Cc2cc(F)cc(F)c2)[C@@H](O)C[C@@H](CC)C(=O)NC[C@H]2CC[C@H](C(=O)O)CC2)c1 | – | 0.05
CCCN(CCC)C(=O)c1cccc(C(=O)N[C@@H](Cc2cc(F)cc(F)c2)[C@@H](O)C[C@@H](CC)C(=O)NCCCCC(=O)O)c1 | – | 0.4
CCCN(CCC)C(=O)c1cccc(C(=O)N[C@@H](Cc2cc(F)cc(F)c2)[C@@H](O)C[C@@H](CC)C(=O)N[C@H]2C[C@@H](OC)C[C@@H](OC)C2)c1 | – | 6.6
CC(C)C[C@H](NCC(=O)[C@H](CC(N)=O)NC(=O)OC(C)(C)C)C(O)CC(C)C(=O)NC(C(=O)NCc1ccccc1)C(C)C (some centres undefined) | 3.13 | –
CCCN(CCC)C(=O)c1cccc(C(=O)N[C@@H](Cc2cc(F)cc(F)c2)[C@@H](O)C[C@@H](CC)C(=O)NCc2ccccc2)c1 | – | 1.4
CC(C)C[C@H](NCC(=O)[C@H](CS(C)(=O)=O)NC(=O)OC(C)(C)C)C(O)CC(C)C(=O)NC(C(=O)NCc1ccccc1)C(C)C (some centres undefined) | 1.13 | –
CCCN(CCC)C(=O)c1cccc(C(=O)N[C@@H](Cc2cc(F)cc(F)c2)[C@@H](O)C[C@@H](CC)C(=O)NCCC(=O)O)c1 | – | 2.8
CC(C)C[C@H](NCC(=O)[C@H](CC(N)=O)NC(=O)OC(C)(C)C)C(O)CC(C)C(=O)NC(C)C(=O)NCc1ccccc1 (some centres undefined) | 22.4 | –
